Experimental data reported in patent US8906933B2, “Dihydropyrimidin-2(1H)-one compounds as neurokinin-3 receptor antagonists” (N30 Pharmaceuticals, Inc., priority 2010, dated 2014).

Columns and labels:
[1] = target: T1, human NK3 receptor (Homo sapiens (Human), UniProt P29371); assay: biochemical
[2] = target: T1, human NK3 receptor; assay: Human NK3 receptor binding assay at 10 μM; settings: 10 μM test compound; [3H]SR142801, CHO cell membranes; read-out: percent inhibition at 10 μM
Protocol: Antagonist activity was evaluated at a concentration of 10 μM for a representative subset of test compounds, and the results were expressed as the percent inhibition at that concentration.
Each test compound was evaluated at a single concentration of 10 μM. […] The results are expressed as a percent of control specific binding ((measured specific binding/control specific binding)×100) obtained in the presence of the test compounds.

[3] = target: T1, human NK3 receptor; assay: Human neurokinin NK3 receptor agonist effect (Ca2+ mobilization, CHO cells); format: cell-based; settings: highest tested concentration; CHO cells transfected with human NK3 receptor
Protocol: This model evaluates the agonist activity of compounds in CHO cells transfected with the human NK3 receptor. Agonist activity is determined by measuring the effect of compounds on cytosolic Ca^2+ ion mobilization using a fluorimetric detection method.
The transfected CHO cells are suspended in DMEM buffer (Invitrogen) supplemented with 0.1% FCS, then distributed in 96-well microplates at a density of 3×10^4 cells/well. The fluorescent probe (Calcium4, Molecular Device) is mixed with probenicid in HBSS buffer plus 20 mM Hepes (pH 7.4) (Invitrogen) and added into each well. The probe is allowed to equilibrate with the cells for 60 minutes at 37° C. followed by a 15 minute incubation at 22° C. Thereafter, the assay plates are positioned in a microplate reader (CellLux, PerkinElmer) and the test compound, reference agonist or HBSS buffer (basal control) is added. Changes in fluorescence intensity, which varies proportionally to the free cytosolic Ca^2+ ion concentration, are then measured. For stimulated control measurements, [MePhe^7]-NKB at 10 nM is added in separate assay wells, and the results are expressed as a percent of the control response to 10 nM [MePhe^7]-NKB.
The standard reference agonist is [MePhe^7]-NKB, which is tested in each experiment at several concentrations to generate a concentration-response curve from which an EC50 value can be calculated.

[4] = target: T1, human NK3 receptor; assay: Human NK3 receptor binding assay at 1 uM; settings: 1 μM test compound; [3H]SR142801, CHO cell membranes; read-out: percent inhibition at 1 μM
Protocol: Antagonist activity was evaluated at a concentration of 1 μM for a representative subset of test compounds, and the results were expressed as the percent inhibition at that concentration.
Each test compound was evaluated at a single concentration of 1 μM. […] The results are expressed as a percent of control specific binding ((measured specific binding/control specific binding)×100) obtained in the presence of the test compounds.

[5] = target: T1, human NK3 receptor; assay: Human neurokinin NK3 receptor antagonist effect (agonist-induced Ca2+ mobilization, CHO cells); format: cell-based; settings: 10 uM; response to 1 nM [MePhe7]-NKB, CHO cells transfected with human NK3 receptor
Protocol: This model evaluates the antagonist activity of compounds in CHO cells transfected with the human NK3 receptor. Antagonist activity is determined by measuring the effect of compounds on agonist-induced cytosolic Ca^2+ ion mobilization using a fluorimetric detection method.
The cells are suspended in DMEM buffer (Invitrogen) supplemented with 0.1% FCS and distributed in 96-well microplates at a density of 3×10^4 cells/well. The fluorescent probe (Calcium4, Molecular Device) is mixed with probenicid in HBSS buffer plus 20 mM Hepes (pH 7.4) (Invitrogen) and added into each well. The probe is allowed to equilibrate with the cells for 60 minutes at 37° C. followed by a 15 minute incubation at 22° C. Thereafter, the assay plates are positioned in a microplate reader (CellLux, PerkinElmer) and the test compound, reference antagonist or HBSS buffer is added. 5 minutes later, 1 nM [MePhe^7]-NKB or HBSS buffer (basal control) is added, and changes in fluorescence intensity are measured.
The standard reference antagonist is SB 222200, which is tested in each experiment at several concentrations to generate a concentration-response curve from which an IC50 value can be calculated.

T1 sequence (P29371 whole entry): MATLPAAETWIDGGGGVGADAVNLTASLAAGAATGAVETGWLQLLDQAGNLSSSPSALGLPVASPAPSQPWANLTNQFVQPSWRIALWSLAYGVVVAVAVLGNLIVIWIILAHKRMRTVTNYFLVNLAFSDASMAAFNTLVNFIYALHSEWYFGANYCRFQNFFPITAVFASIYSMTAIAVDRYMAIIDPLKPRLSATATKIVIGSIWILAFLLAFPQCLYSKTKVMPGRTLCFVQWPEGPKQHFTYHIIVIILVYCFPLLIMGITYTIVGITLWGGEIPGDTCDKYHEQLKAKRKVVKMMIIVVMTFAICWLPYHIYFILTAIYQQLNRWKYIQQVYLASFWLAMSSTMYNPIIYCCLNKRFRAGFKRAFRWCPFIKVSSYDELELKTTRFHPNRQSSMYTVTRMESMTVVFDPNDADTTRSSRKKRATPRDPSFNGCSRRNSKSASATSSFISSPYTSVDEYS

IC50 [1]: ≤ 0.1 µM
inhibition at 10 µM [2]: > 50%
agonist effect [3]: no effect was seen
inhibition at 1 µM [4]: > 50%
antagonist effect [5]: antagonist effect was seen
Compound: CCOc1cc(C2NC(=O)NC(c3ccccc3)=C2C2CCCCC2)cc([N+](=O)[O-])c1O (centres unmarked) [5-cyclohexyl-4-(3-ethoxy-4-hydroxy-5-nitrophenyl)-6-phenyl-3,4-dihydropyrimidin-2(1H)-one]
